Laboratory results taken from article PMC7743948, “D-LL-31 enhances biofilm-eradicating effect of currently used antibiotics for chronic rhinosinusitis and its immunomodulatory activity on human lung epithelial cells” (PLoS ONE, 2020).
Square brackets hold non-standard residues; d marks the D form. Peptide text beside a SMILES is read from it.

How the values were obtained:
[1] = system: S. epidermidis biofilm; test: Checkerboard synergy of D-LL-31 with antibiotics on biofilm; format: cell-based, Staphylococcus epidermidis; settings: D-LL-31 combined with AMX; IC50 alone compared with concentration of combination
Protocol: (§1) Bacterial viability in each interaction was determined using the plate count technique. The fractional inhibitory concentration index (FICI) values were calculated and interpreted in terms of synergism/antagonism as previously described. Each experiment was performed independently three times in duplicate.

[2] = system: A549 cells (human lung epithelial cells); settings: 25 µM
Protocol: Briefly, A549 cells were maintained in RPMI-1640 (HyClone™, Marlborough, MA) with 10% fetal bovine serum (FBS) (HyClone™) and sub-cultured by standard methods using trypsin/EDTA (0.25% trypsin, 0.1% EDTA) (Corning™, Corning, NY). A standard curve of A549 cells (100–50000 cells/well) was constructed as previously described with some modification [43]. For MTT assay, cells were plated at a density of 2.5×10^4 cells/well in 96-well plates and grown overnight. […] Prepared A549 cells were then exposed to the diluted peptides for 24 h at 37°C, 5% CO2 atmosphere. Negative controls received either culture medium or PPB. Cells with 2% dimethyl sulfoxide (DMSO) (Sigma-Aldrich) were used as positive control. Cytotoxicity was assessed using MTT (0.5 mg/ml) according to the manufacturer's instructions (Sigma-Aldrich). Absorbance was measured at a wavelength of 570 nm with background subtraction at 630–690 nm. Then absorbance values from the MTT were converted to cells/well using a standard curve. Cell viabilities were calculated using the formula; [mean of cells in treated well]/[mean of cells in control well] × 100%. Each experiment was performed independently three times in triplicate.

[3] = system: all tested isolates (K. pneumoniae, S. epidermidis, P. aeruginosa, P. aeruginosa ATCC 27853); test: Killing of planktonic bacteria (CFU count), statements for all tested isolates; format: cell-based; settings: 1 μM, within 1 h, 5 x 10^5 CFU/ml, all tested strains
Protocol: A bacterial suspension without peptide served as a control. The samples were then serially diluted and cultivated on NA (Himedia®) and incubated for 24 h to allow colony counting. […] Each experiment was performed independently three times in duplicate.

[4] = system: biofilm matrix of all tested strains; test: Biofilm matrix reduction (AAA-model, CLSM, COMSTAT biomass), statements for all tested strains; format: cell-based
Protocol: (§2) Briefly, 1.5 ml of each overnight culture (10^8 CFU/ml) was added to a 24-well tissue culture plate (Nunclon™). The plate was covered with a sterile stainless-steel lid containing glass coverslips and aerobically incubated at 37°C for 24 h. […] All tested conditions were incubated at 37°C for 24 h. A well free of antimicrobial agent was used as a control. Following incubation, biofilms were fixed with 2.5% glutaraldehyde (Sigma-Aldrich) at 25°C for 3 h. The fixed bacterial biofilms on glass coverslips were stained with 50 μg/ml Alexa Fluor® 488 (Invitrogen, Carlsbad, CA) for 30 min. This stain reacts with exopolysaccharide matrixes of the biofilm. The glass coverslips were then mounted with 80% glycerol and the stained cells were photographed using a confocal laser-scanning microscope (CLSM) (TCS SP8-Leica Microsystems, Wetzlar, Germany). […] Each experiment was performed independently three times in duplicate.

[5] = system: hRBCs (human red blood cells); settings: cited from earlier work
[6] = system: P. aeruginosa biofilm matrix; test: Biofilm matrix reduction (AAA-model, CLSM, COMSTAT biomass); format: cell-based, Pseudomonas aeruginosa; settings: combination of D-LL-31 (0.5 μM) and TOB (0.2 μM), 24 h
Protocol: as §2

[7] = system: K. pneumoniae biofilm; test: Checkerboard synergy of D-LL-31 with antibiotics on biofilm; format: cell-based, Klebsiella pneumoniae; settings: D-LL-31 combined with AMX; IC50 alone compared with concentration of combination
Protocol: as §1

[8] = system: A549 human lung epithelial cells; test: Cytokine antibody array of culture supernatant; format: cell-based; settings: 10 μM, 24 h
Protocol: The immunomodulatory effect of D-LL-31 on A549 human lung epithelial cells was investigated using cytokine antibody arrays. […] Cells in medium without peptide were used as a control. After incubation, the secreted cytokines in culture supernatant were detected using a human angiogenesis antibody array kit (AAH-ANG-1000-4, Norcross, GA) according to the manufacturer's instructions. […] Each experiment was performed independently two times in duplicate.

[9] = system: K. pneumoniae biofilm; test: microbe, parasite or virus in culture; settings: biofilm, 24 h
Protocol: (§3) The effects of both conventional antibiotics and AMPs against bacteria under biofilm-stimulating condition were determined using a transferable solid phase (TSP) pin lid, which resembles the ‘Calgary’ biofilm device as previously described with some modifications. Each strain (10^7 CFU/ml) was added to sterile 96-well plates (Nunclon™), then covered by a TSP pin lid (NUNC™, Roskilde, Denmark), and further incubated at 37 °C for 24 h. […] Additionally, the effect of TOB (2–836 μM or 1–391 μg/ml) against P. aeruginosa biofilm was also investigated. Then the plates were statically incubated at 37 °C for 24 h. A well free of antimicrobial agent was used as a control. After 24 h, bacterial survival was determined using the plate count technique on NA (Himedia®). The percentage killing of each antimicrobial agent was calculated using the formula [1 − (CFU sample/CFU control)] × 100% [15, 19]. […] Each experiment was performed independently three times in duplicate.

[10] = system: S. epidermidis biofilm; test: microbe, parasite or virus in culture
Protocol: as §3

[11] = system: P. aeruginosa biofilm; test: microbe, parasite or virus in culture; settings: biofilm, 24 h
Protocol: as §3

[12] = system: P. aeruginosa biofilm; test: Checkerboard synergy of D-LL-31 with antibiotics on biofilm; format: cell-based, Pseudomonas aeruginosa; settings: IC50 alone compared with concentration of combination
Protocol: as §1

[13] = system: all bacteria in biofilm; test: Killing of bacteria grown as biofilm (TSP pin lid), statements for all bacteria; format: cell-based
Protocol: as §3

Structure (SMILES): CC[C@@H](C)[C@@H](NC(=O)[C@@H](CCCCN)NC(=O)[C@@H](CCC(=O)O)NC(=O)[C@@H](CCCCN)NC(=O)[C@@H](CO)NC(=O)[C@@H](CCCCN)NC(=O)[C@@H](CCCNC(=N)N)NC(=O)[C@@H](Cc1ccccc1)NC(=O)[C@@H](Cc1ccccc1)NC(=O)[C@@H](CC(=O)O)NC(=O)CNC(=O)[C@@H](CC(C)C)NC(=O)[C@H](N)CC(C)C)C(=O)NCC(=O)N[C@H](CCCCN)C(=O)N[C@H](CCC(=O)O)C(=O)N[C@H](Cc1ccccc1)C(=O)N[C@H](CCCCN)C(=O)N[C@H](CCCNC(=N)N)C(=O)N[C@@H](C(=O)N[C@@H](C(=O)N[C@H](CCC(N)=O)C(=O)N[C@H](CCCNC(=N)N)C(=O)N[C@@H](C(=O)N[C@H](CCCCN)C(=O)N[C@H](CC(=O)O)C(=O)N[C@H](Cc1ccccc1)C(=O)N[C@H](CC(C)C)C(=O)N[C@H](CCCNC(=N)N)C(=O)N[C@H](CC(N)=O)C(=O)N[C@H](CC(C)C)C(=O)O)[C@H](C)CC)C(C)C)[C@H](C)CC [D-LL-31] (H-[dL][dL]G[dD][dF][dF][dR][dK][dS][dK][dE][dK][dI]G[dK][dE][dF][dK][dR][dI][dV][dQ][dR][dI][dK][dD][dF][dL][dR][dN][dL]-OH; N-terminus and C-terminus assumed)
- Fold decrease of IC50 values [1]: 16 fold
- viable cells [2]: more than 80%
- killing of bacterial cells, in words [3]: completely killed
- biofilm biomass relative to controls ([4]; D-LL-31 in combination with antibiotics, 24 h, P < 0.001): Significant decreases
- biofilm biomass relative to controls ([4]; D-LL-31 treatment alone at IC50, 24 h, P < 0.01): Significant decreases
- biofilm matrix relative to controls ([4]; combination of D-LL-31 with AMX, 24 h, all tested strains): distinct decrease
- hemolytic activity [5]: less than 1%
- biofilm matrix relative to controls [6]: statistically significant reduction
- Fold decrease of IC50 values [7]: 8 fold
- expression of IFN-γ [8]: not found
- expression of IL-6 [8]: did not induce
- levels of IL-4, IL-8, TNF-α and GRO-a, b and g [8]: no significant change
- ENA-78 secretion relative to controls ([8]; P < 0.05): significantly secreted
- TIMP-2 in culture supernatant ([8]; P < 0.05): significantly elevated
- IC50 [9]: 600 nM
- killing activity compared with all tested peptides ([10]; 1.56–25 μM, P < 0.05, one-way ANOVA): significantly higher
- IC50 ([10]; biofilm, 24 h): 500 nM
- IC50 [11]: 4000 nM
- Fold decrease of IC50 values ([12]; D-LL-31 combined with AMX): 16 fold
- Fold decrease of IC50 values ([12]; D-LL-31 combined with TOB): 8 fold
- IC50 ([13]; 24 h biofilm, 24 h, read-out: IC50 values, range over all bacteria in biofilm): 500 to 4000 nM
- IC70 values, range ([13]; D-LL-31 alone and in combination with antibiotics, biofilm-stimulating condition): 800 to 8700 nM
- IC90 ([13]; bacteria grown as biofilm, read-out: IC90 values, range): 1000 to 25000 nM
